Results from ChEMBL document CHEMBL2203004, “New diterpene furanoids from the Antarctic lichen Huea sp” (Bioorg Med Chem Lett, 2012).
The source made the active and inactive calls. No cut-off for these calls is given here.

Tests used:
[1] = biological target: T1, Tyrosine-protein phosphatase non-receptor type 1 (Homo sapiens) (UniProt P18031); assay: Noncompetitive inhibition of human recombinant PTP1B using p-nitrophenyl phosphate as substrate at 5.57 to 14.87 uM after 30 mins by Lineweaver-Burk plot analysis
T1 sequence (whole entry): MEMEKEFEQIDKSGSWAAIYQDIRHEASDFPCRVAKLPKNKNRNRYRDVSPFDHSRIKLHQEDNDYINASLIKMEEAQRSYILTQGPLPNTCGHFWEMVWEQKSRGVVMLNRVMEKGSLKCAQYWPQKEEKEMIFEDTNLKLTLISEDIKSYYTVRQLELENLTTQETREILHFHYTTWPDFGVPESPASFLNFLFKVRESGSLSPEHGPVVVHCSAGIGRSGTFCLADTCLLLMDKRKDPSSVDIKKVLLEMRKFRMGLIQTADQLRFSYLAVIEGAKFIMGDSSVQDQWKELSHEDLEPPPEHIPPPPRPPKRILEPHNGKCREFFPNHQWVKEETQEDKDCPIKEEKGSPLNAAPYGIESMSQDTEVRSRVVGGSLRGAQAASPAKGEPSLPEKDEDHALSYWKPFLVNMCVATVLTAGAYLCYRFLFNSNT

[2] = biological target: T2, Tyrosine-protein phosphatase non-receptor type 1 (Homo sapiens, UniProt P18031); assay: (§1) Inhibition of human recombinant PTP1B using p-nitrophenyl phosphate as substrate after 30 mins by spectrophotometric analysis
T2 sequence (P18031 whole entry): T1 sequence (whole entry)

[3] = biological target: T1, Tyrosine-protein phosphatase non-receptor type 1 (Homo sapiens); assay: as §1

- inhibition [1]: Active
- IC50 [2]: 13.9 µM
- inhibition [3]: Dose-dependent effect
Structure (SMILES): C=CC(C)(O)C/C=C/[C@@]1(C)CC[C@@H](C(C)(O)CC(=O)C=C(C)C)O1 (relative stereo)
